Laboratory results reported in ChEMBL document CHEMBL1201862, “PubChem BioAssay data set” (2004).
Each block holds one molecule with its values, some of them ahead of it. The source made the active and inactive calls.

Experiments:
[1] = target: T1, Lysine-specific demethylase 4C (Homo sapiens, UniProt Q9H3R0); assay: inhibition of JMJD2C H3K9me3 demethylation – biochemical, DELFIA europium, cherry-picked samples, dose response (AID 488835); type: functional
T1 sequence (Q9H3R0 whole entry): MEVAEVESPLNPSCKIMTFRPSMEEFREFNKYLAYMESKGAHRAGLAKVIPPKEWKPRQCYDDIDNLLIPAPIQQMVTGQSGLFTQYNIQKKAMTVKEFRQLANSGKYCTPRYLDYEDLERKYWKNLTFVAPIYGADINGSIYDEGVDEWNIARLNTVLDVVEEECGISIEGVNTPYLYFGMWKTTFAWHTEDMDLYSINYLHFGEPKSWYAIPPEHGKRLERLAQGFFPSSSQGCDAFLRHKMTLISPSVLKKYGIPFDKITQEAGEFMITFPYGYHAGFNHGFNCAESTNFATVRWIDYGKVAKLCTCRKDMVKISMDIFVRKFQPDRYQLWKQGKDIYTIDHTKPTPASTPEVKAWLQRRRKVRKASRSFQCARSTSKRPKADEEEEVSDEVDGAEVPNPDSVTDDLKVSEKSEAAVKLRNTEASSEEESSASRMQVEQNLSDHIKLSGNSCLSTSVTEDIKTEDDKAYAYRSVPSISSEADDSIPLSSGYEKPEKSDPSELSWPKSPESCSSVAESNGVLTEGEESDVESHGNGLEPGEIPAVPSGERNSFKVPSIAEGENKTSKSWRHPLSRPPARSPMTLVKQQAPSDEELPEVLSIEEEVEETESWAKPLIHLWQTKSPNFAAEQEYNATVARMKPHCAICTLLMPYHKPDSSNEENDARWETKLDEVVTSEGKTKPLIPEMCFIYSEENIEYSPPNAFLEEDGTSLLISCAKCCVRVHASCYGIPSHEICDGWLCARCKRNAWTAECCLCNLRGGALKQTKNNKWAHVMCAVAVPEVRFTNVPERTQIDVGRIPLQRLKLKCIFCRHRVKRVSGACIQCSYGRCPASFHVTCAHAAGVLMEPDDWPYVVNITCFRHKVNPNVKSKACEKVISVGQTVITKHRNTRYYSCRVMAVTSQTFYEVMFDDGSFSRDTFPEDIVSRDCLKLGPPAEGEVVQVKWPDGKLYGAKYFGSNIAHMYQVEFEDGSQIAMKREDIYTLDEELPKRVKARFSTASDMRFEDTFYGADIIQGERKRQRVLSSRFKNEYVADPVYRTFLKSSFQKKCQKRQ

[2] = cells; type: functional, cell-based
[3] = target: Peroxisome proliferator-activated receptor gamma/Nuclear receptor coactivator 2 (Homo sapiens, UniProt P37231); assay: (§1) TR-FRET dose response biochemical High Throughput Screening assay for agonists of the steroid receptor coactivator 2 (SRC-2) recruitment by the peroxisome proliferator-activated receptor gamma (PPAR gamma): non-selective agonists. [Related pubchem assays: 1297, 1032 ]; type: functional
[4] = target: Peroxisome proliferator-activated receptor gamma/Nuclear receptor coactivator 3 (Homo sapiens, UniProt P37231); assay: as §1, with “3 (SRC-3)” for “2 (SRC-2)”, “1301 (Confirmation screen.), 1048 (Primary screen.)]” for “1297, 1032 ]”; type: functional
[5] = target: Peroxisome proliferator-activated receptor gamma/Nuclear receptor coactivator 1 (Homo sapiens, UniProt P37231); assay: as §1, with “1 (SRC-1)” for “2 (SRC-2)”, “assays (depositor defined):AID1300, AID1808, AID504735, AID631]” for “assays: 1297, 1032 ]”; type: protein assay
[6] = target: T2, Microphthalmia-associated transcription factor (Homo sapiens, UniProt O75030); assay: reducers of TRPM1 reporter luminescence, concentration series – cell-based, SK-MEL-5, cherry-picked, set 3, MITF inhibitor project, dose response (AID 493073); type: functional;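 note: SK-MEL-5 melanoma cells with luciferase driven by the MITF target TRPM1 promoter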
T2 sequence (O75030 whole entry): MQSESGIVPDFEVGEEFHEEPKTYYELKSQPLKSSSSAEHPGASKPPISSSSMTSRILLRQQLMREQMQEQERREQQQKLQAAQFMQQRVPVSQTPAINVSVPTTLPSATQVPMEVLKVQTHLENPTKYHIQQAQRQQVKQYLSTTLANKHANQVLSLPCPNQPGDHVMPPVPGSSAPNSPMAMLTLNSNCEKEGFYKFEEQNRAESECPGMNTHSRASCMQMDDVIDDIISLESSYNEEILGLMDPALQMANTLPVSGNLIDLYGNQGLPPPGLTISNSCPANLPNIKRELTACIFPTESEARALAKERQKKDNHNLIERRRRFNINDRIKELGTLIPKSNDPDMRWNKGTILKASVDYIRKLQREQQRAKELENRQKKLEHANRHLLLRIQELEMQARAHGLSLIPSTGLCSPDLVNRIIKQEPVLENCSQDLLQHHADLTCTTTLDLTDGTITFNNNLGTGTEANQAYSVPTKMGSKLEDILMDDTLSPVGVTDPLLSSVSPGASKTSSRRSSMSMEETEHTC

[7] = tested on: A-375; assay: MITF: Counter assay: A375 proliferation Measured in Cell-Based System Using Plate Reader - 2084-03_Inhibitor_Dose_DryPowder_Activity. [Related pubchem assays (depositor defined):AID488944]; type: functional; conditions: Homo sapiens
[8] = target: T3, Cytochrome P450 1A2 (Homo sapiens, UniProt P05177);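 note: PubChem cytochrome P450 panel assay, CYP1A2 panel member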
T3 sequence (P05177 whole entry): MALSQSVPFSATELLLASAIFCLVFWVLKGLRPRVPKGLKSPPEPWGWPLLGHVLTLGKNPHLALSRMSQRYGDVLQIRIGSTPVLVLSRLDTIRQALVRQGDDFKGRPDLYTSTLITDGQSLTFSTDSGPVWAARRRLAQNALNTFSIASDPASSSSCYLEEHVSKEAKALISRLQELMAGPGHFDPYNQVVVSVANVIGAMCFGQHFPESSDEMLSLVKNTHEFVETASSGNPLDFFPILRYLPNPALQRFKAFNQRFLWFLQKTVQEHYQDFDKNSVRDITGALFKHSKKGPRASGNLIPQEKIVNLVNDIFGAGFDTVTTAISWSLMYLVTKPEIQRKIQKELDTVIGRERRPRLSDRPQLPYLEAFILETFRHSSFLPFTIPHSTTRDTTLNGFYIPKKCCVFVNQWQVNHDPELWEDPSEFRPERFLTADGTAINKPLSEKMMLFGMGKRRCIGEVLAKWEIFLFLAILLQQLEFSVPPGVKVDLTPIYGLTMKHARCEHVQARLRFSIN

[9] = target: Cytochrome P450 3A4 (Homo sapiens, UniProt P08684);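 note: CYP3A4 tested as one member of a cytochrome P450 panel screen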
[10] = target: T4, Insulin-degrading enzyme (Homo sapiens, UniProt P14735); assay: cellular IDE activation of Abeta substrate cleavage – fluorescence polarization, HEK cells, dose response (AID 588439); type: functional, cell-based
T4 sequence (P14735 whole entry): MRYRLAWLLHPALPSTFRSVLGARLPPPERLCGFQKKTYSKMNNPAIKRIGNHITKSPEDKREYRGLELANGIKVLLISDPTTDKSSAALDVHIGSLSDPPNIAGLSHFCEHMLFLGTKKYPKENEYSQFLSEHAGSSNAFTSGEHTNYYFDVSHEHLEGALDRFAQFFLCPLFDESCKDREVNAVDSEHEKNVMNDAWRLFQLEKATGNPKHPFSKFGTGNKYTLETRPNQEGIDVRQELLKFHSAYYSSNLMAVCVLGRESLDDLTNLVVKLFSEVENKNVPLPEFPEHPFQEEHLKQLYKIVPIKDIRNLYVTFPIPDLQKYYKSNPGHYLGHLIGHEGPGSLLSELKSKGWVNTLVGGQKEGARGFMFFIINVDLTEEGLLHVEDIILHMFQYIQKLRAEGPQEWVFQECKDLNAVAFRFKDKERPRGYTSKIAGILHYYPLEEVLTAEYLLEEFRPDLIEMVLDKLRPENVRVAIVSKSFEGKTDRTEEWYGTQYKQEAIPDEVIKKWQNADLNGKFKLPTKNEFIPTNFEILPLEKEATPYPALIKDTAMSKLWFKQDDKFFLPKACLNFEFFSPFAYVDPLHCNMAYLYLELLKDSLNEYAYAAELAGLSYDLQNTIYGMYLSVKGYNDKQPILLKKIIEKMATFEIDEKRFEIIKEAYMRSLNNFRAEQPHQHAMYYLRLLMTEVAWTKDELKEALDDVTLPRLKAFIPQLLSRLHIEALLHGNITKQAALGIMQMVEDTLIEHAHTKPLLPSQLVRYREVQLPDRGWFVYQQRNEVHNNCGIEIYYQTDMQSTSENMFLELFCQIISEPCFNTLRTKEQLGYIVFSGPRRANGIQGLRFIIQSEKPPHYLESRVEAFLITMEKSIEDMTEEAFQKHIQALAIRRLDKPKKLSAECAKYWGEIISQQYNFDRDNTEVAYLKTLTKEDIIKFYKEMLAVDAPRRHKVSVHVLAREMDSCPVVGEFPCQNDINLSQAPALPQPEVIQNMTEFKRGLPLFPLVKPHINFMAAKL

[11] = tested on: HEK293; assay: membrane integrity loss in HEK cells – cell-based, fluorescence, cytotoxicity control for IDE activator project, dose response (AID 588440); type: functional; conditions: Homo sapiens;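 note: cytotoxicity by LDH release measuring loss of membrane integrity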
[12] = target: T4, Insulin-degrading enzyme; assay: recombinant IDE activation, cell-free – biochemical, fluorescence polarization, counter-screen for IDE activator project, dose response (AID 588681)
[13] = tested on: HEK293; assay: optical interference in Abeta FP readout, dose response, artefact control for IDE activator project, biochemical, fluorescence polarization (AID 588442); type: functional, cell-based; conditions: Homo sapiens

Cytochrome P450 3A4, sequence (P08684 whole entry): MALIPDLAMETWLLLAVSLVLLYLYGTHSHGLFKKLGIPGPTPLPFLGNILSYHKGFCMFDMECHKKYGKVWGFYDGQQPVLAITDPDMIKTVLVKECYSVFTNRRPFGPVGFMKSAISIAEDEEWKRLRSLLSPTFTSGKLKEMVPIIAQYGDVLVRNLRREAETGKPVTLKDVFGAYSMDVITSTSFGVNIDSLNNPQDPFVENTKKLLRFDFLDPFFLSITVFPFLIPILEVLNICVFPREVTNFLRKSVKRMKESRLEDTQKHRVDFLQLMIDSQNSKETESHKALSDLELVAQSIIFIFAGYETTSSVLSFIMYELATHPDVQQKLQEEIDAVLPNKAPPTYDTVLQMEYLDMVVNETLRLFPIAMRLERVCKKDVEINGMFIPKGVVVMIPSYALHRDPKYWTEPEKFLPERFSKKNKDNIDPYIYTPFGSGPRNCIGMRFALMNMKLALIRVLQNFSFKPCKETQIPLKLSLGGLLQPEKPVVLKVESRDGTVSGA
Peroxisome proliferator-activated receptor gamma/Nuclear receptor coactivator 2, sequence (P37231 whole entry): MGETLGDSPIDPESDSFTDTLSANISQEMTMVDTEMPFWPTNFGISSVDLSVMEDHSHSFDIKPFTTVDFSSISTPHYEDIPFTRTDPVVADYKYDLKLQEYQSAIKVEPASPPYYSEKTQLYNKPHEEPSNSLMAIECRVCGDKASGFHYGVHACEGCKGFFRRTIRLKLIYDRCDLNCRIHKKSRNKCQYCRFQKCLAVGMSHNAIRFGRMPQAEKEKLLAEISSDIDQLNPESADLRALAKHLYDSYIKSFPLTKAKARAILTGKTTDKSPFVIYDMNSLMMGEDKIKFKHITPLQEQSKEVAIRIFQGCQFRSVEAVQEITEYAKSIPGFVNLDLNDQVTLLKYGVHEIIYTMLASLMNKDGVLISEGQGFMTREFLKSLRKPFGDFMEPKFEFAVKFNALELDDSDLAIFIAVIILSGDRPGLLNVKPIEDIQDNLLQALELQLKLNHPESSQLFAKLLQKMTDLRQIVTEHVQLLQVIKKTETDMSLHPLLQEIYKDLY
Peroxisome proliferator-activated receptor gamma/Nuclear receptor coactivator 2, sequence (Q15596 whole entry, further chain): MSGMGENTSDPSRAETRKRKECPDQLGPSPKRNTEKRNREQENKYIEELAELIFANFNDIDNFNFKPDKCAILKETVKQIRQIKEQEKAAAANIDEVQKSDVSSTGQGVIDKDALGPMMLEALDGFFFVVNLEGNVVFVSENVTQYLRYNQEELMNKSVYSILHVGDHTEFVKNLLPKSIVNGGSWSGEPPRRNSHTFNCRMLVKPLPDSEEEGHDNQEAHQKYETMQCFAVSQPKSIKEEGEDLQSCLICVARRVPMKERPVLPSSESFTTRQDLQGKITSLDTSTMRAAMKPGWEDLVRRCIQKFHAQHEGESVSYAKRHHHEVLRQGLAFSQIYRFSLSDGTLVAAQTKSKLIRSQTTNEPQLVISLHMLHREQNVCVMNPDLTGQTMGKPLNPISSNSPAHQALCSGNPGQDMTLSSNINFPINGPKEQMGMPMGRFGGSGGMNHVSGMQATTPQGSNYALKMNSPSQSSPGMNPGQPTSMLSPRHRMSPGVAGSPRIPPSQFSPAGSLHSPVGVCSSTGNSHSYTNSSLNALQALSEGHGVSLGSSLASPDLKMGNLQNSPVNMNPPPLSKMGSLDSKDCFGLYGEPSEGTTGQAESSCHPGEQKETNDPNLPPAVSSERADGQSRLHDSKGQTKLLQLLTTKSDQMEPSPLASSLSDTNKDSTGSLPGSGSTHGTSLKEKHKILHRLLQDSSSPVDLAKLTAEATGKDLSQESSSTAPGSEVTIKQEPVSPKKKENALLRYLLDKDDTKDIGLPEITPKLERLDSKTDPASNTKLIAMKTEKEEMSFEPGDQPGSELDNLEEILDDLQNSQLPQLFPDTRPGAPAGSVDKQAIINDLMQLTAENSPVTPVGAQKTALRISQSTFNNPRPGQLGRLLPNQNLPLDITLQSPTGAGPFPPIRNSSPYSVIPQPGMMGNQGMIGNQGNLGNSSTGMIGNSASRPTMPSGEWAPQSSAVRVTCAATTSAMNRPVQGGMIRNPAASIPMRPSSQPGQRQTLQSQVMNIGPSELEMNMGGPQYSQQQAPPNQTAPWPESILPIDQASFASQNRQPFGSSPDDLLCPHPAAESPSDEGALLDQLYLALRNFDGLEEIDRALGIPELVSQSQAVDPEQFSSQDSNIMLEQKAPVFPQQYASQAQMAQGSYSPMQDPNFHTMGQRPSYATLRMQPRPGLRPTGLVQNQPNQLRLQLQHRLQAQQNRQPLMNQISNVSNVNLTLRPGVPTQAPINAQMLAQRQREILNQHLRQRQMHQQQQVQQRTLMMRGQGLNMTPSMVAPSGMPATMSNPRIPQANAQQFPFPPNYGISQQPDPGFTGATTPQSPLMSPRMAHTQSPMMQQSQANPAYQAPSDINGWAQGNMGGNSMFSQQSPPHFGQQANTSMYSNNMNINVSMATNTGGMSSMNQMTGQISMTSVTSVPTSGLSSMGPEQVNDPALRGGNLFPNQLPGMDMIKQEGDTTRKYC
Peroxisome proliferator-activated receptor gamma/Nuclear receptor coactivator 1, sequence (P37231 whole entry): as the sequence (P37231 whole entry) above
Peroxisome proliferator-activated receptor gamma/Nuclear receptor coactivator 1, sequence (Q15788 whole entry, further chain): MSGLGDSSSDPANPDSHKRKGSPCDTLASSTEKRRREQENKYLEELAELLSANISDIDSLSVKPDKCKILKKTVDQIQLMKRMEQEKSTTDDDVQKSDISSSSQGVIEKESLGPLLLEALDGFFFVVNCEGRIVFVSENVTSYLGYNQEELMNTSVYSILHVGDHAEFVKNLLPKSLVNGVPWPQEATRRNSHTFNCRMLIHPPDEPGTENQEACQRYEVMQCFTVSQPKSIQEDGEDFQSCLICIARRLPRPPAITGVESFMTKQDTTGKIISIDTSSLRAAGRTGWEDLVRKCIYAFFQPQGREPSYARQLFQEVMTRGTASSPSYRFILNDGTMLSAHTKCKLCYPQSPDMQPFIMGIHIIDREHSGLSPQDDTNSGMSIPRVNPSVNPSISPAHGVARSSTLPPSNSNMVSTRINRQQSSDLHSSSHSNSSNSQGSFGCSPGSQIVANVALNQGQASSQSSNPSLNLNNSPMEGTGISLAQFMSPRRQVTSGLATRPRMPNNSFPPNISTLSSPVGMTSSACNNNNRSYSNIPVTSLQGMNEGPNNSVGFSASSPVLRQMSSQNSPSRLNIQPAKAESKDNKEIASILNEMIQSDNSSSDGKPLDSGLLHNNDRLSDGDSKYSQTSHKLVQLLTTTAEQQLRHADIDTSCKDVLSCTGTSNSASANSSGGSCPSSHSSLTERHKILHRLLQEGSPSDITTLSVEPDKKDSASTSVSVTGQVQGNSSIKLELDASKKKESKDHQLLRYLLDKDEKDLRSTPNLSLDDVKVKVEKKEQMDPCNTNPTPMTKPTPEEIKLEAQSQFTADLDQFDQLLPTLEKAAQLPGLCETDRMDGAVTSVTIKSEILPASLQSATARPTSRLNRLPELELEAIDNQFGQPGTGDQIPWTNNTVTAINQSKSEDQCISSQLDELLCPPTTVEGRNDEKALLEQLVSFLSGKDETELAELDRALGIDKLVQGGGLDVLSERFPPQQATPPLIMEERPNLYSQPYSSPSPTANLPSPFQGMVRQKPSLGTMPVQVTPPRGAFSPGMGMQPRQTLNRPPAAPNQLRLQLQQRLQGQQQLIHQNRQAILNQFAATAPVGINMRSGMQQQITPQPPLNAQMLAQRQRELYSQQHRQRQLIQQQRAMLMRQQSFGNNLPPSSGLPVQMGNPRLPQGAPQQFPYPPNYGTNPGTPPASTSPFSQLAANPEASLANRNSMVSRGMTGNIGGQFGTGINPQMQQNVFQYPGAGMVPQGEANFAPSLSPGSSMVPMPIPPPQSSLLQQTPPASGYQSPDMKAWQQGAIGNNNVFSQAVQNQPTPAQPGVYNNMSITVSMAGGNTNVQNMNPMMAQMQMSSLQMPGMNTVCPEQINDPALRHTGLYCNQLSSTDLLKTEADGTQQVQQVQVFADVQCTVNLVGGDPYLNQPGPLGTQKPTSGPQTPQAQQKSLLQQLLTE

AC50 [1]: 11.5 µM (active)
Structure (SMILES): COC(=O)[C@@H](N)Cc1ccc(O)c(O)c1

Structure (SMILES): COc1ccc(-c2csc(NNC3=NCCCCC3)n2)cc1
EC50 [2]: > 350 µM (not active)
AC50 [1]: 7.08 µM (active)

EC50 [3]: > 79.4 µM (not active)
EC50 [4]: > 79.4 µM (not active)
EC50 [5]: > 79.4 µM (inactive)
Structure (SMILES): CCn1c(=O)cc(SCC(=O)NCc2ccc3c(c2)OCO3)c2ccccc21

AC50 [1]: 44.8 µM (active)
Structure (SMILES): COCCCNC(=O)C1CCN(C(=O)Nc2ccc(Cl)cc2)CC1

Structure (SMILES): CCN1CCN(C2=C(NS(=O)(=O)c3ccc(C)cc3)C(=O)c3ccccc3C2=O)CC1
AC50 [6]: 4.18 µM (active)
AC50 [7]: 36.6 µM (active)

AC50 [8]: 1.58 µM (inconclusive)
AC50 [9]: inconclusive
Structure (SMILES): Cc1ccc2nc(SCc3nnc(-c4ccccc4[N+](=O)[O-])o3)c(C#N)cc2c1

Structure (SMILES): NC(CO)c1cn([C@@H](CCC(=O)O)C(=O)N2CCNCC2)nn1 (stereo not given in full)
EC50 [10]: > 54.7 µM (inactive)
IC50 [11]: > 89.2 µM (inactive)
EC50 [12]: > 54.7 µM (inactive)
EC50 [13]: > 55.9 µM (inactive)
